# Reference: patent US11253517B2, “Small molecule regulators of steroid receptor coactivators and methods of use thereof” (BAYLOR COLLEGE OF MEDICINE, priority 2016, dated 2022)
# Experiments:
# BT-474 cells = assay: IC50 in BT-474 cells, 72 hours incubation; type: cell-based
# Method: The compounds described herein were synthesized as described in Example 1. The IC50 values were measured in MDA-MB-468, BT-474, and MCF-7 cells by incubating a series of concentrations of the corresponding compounds for 72 hours.
# In Tables 1 and 2, “−” represents IC50 or EC50 values greater than 10 μM; “+” represents IC50 or EC50 values from greater than 1 μM to 10 μM; “++” represents IC50 or EC50 values from 0.1 μM to 1 μM; and “+++” represents IC50 or EC50 values less than 0.1 μM.
# [1] = tested on: Panc-1-Luc pancreatic tumor; assay: Orthotopic pancreatic cancer mouse model (Panc-1-Luc); type: in vivo, SCID mice
# Method: FIG. 3, Panels A-E show the therapeutic efficacy of SI-12 in an orthotopic pancreatic cancer mouse model. […] Data represent mean±SEM. *, P<0.05, **, P<0.01 by student t-test.
# SI-12 was tested in pancreatic, lung, brain, and melanoma cancers. A representative example for pancreatic tumor treatment is described below. Panc-1 cells stably expressing firefly luciferase cells (Panc-1-Luc, 0.5×10^6 cells per mouse) were injected into the tail of pancreas of SCID mice (6-7 weeks). The mice were randomized into two groups based on luciferase imaging (n=8 per group). Eight days after tumor inoculation, the two groups were administered SI-12 (10 mg/kg, i.p. injection, once daily) or an equal volume of vehicle control five times per week. Tumor growth and systemic toxicity were monitored based on luciferase imaging and body weight weekly. The mice were sacrificed after eight weeks of treatment. […] At the end of the experiment, tumors were harvested and weighed. The average tumor weight in SI-12 treated mice was ˜30% of the vehicle treated counterparts (FIG. 3D).
# To test whether SI-12 causes SRC-3 down-regulation in vivo, the SRC-3 levels in tumor tissues were measured by immunohistochemistry (IHC). Multiple tumor tissues (N>3) collected from both the control group and the SI-12 treated group were processed and immunohistochemically stained with an anti-SRC-3 antibody or an anti-Ki-67 antibody. […] Ki-67, a cell proliferation marker, was also immunochemically analyzed.
# CAMK4 = molecular target: T1, CAMK4 (Homo sapiens, UniProt Q16566); assay: Kinase-Glo Luminescent Kinase Assay; type: biochemical
# T1 construct: purchased Promega
# T1 sequence (Q16566 whole entry): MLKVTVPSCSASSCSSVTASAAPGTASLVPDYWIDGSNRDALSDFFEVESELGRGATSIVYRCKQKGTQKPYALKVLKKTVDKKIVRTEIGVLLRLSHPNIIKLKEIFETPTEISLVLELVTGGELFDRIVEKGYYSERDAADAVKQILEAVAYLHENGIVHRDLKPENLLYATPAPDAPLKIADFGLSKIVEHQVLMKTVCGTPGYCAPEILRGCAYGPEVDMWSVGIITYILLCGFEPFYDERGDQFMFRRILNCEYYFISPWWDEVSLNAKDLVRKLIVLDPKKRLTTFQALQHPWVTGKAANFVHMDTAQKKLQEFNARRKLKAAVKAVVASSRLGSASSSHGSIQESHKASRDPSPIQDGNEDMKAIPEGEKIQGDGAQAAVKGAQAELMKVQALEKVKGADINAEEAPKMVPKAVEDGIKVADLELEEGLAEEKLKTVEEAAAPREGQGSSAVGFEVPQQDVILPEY
# Method: (§1) SI-12 was also tested for its ability to disrupt kinase activity. The effects of the compound were tested on a panel of 24 kinases using a Kinase-Glo Luminescent Kinase Assay system (Promega; Madison, Wis.). SI-12 was tested, at concentrations of 1000 nM, 50 nM, and 5 nM, for its ability to interfere with recombinant kinases in the assay system. The amount of ATP to ADP conversion in the presence of SI-12 was compared to a DMSO vehicle control. The values shown in Table 3 represent the percentage of kinase activity compared to a DMSO vehicle control.
# (§2) In Table 3, “−” represents less than 20% inhibition; “+” represents from 20% to 40% inhibition; “++” represents from 40% to 60% inhibition; and “+++” represents greater than 60% inhibition.
# CK1a 1 = molecular target: T2, CK1a 1 (Homo sapiens, UniProt P48729); assay: Kinase-Glo Luminescent Kinase Assay; type: biochemical
# T2 construct: purchased Promega
# T2 sequence (P48729 whole entry): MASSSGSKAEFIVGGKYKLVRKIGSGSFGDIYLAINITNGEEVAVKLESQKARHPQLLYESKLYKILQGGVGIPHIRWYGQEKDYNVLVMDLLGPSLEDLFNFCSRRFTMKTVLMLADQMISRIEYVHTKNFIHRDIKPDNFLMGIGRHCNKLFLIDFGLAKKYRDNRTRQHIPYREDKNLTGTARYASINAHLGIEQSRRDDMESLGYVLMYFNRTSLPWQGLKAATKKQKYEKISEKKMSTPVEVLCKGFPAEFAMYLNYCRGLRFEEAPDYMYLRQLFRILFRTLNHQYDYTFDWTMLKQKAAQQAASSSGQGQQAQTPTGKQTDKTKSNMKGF
# Method: as §1, §2
# CK1y1 = molecular target: T3, CK1y1 (Homo sapiens, UniProt Q9HCP0); assay: Kinase-Glo Luminescent Kinase Assay; type: biochemical
# T3 construct: purchased Promega
# Method: as §1, §2
# CK2a 1 = molecular target: T4, CK2a 1 (Homo sapiens, UniProt P68400); assay: Kinase-Glo Luminescent Kinase Assay; type: biochemical
# T4 construct: purchased Promega
# T4 sequence (P68400 whole entry): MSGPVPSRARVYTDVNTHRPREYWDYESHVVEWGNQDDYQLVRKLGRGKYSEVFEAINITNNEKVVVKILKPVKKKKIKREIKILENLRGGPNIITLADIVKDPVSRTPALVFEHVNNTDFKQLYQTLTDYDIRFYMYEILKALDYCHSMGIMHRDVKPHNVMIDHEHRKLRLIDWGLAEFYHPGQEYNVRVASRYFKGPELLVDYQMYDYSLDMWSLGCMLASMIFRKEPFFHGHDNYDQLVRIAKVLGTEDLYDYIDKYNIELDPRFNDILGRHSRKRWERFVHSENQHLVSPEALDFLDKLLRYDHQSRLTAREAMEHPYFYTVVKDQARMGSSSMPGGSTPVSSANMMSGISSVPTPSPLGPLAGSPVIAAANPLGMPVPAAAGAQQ
# Method: as §1, §2
# DAPK1 = molecular target: T5, DAPK1 (Homo sapiens, UniProt P53355); assay: Kinase-Glo Luminescent Kinase Assay; type: biochemical
# T5 construct: purchased Promega
# T5 sequence (P53355 whole entry): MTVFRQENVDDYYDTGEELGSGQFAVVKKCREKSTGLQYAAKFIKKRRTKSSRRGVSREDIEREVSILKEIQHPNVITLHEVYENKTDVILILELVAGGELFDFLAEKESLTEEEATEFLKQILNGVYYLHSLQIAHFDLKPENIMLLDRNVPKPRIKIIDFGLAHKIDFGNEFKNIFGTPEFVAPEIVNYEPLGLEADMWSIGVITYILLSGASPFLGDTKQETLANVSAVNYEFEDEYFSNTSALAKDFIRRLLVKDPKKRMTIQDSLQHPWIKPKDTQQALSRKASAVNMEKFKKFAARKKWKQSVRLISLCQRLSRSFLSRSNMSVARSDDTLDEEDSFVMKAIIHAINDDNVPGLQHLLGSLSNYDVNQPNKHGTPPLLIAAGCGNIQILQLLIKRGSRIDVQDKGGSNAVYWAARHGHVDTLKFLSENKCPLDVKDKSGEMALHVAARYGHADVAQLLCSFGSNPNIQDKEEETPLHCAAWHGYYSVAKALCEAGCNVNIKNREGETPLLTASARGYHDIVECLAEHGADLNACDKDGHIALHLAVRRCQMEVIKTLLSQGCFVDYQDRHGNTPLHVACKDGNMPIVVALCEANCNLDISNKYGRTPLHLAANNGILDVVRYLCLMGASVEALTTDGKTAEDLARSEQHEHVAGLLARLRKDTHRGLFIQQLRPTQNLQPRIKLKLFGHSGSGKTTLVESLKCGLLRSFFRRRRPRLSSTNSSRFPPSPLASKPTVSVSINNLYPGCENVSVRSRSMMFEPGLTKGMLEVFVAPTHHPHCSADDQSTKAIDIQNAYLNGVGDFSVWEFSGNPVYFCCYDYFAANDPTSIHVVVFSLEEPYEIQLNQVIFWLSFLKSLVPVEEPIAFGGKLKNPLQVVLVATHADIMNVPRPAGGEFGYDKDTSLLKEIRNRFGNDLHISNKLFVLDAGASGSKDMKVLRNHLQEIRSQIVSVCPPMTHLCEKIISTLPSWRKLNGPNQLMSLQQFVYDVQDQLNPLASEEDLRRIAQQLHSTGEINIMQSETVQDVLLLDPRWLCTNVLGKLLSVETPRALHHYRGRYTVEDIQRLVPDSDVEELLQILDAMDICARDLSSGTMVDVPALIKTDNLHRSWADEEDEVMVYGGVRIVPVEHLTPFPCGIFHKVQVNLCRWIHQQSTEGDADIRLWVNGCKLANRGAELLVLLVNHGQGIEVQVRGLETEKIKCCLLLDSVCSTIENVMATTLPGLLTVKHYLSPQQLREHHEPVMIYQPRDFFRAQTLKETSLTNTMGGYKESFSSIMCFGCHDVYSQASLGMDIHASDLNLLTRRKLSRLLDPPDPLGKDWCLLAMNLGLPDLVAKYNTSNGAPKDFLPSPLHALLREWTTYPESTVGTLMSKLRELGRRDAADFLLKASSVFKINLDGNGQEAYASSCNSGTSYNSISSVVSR
# Method: as §1, §2
# IRAK4 = molecular target: T6, IRAK4 (Homo sapiens, UniProt Q9NWZ3); assay: Kinase-Glo Luminescent Kinase Assay; type: biochemical
# T6 construct: purchased Promega
# T6 sequence (Q9NWZ3 1-460): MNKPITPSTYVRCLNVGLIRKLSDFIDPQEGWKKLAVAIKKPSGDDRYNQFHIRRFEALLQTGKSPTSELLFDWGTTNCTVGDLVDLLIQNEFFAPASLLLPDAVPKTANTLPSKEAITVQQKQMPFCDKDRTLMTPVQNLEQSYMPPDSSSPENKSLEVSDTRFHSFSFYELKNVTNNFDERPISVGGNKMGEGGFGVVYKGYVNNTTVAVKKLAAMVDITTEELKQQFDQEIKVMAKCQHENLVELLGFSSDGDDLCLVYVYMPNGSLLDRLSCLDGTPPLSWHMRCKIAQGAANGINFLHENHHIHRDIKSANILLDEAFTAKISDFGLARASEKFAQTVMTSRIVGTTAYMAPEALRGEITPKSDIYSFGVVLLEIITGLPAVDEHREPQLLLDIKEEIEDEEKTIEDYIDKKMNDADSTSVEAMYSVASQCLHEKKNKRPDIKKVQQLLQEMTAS
# Method: as §1, §2
# LCK = molecular target: T7, LCK (Homo sapiens, UniProt P06239); assay: Kinase-Glo Luminescent Kinase Assay; type: biochemical
# T7 construct: purchased Promega
# T7 sequence (P06239 whole entry): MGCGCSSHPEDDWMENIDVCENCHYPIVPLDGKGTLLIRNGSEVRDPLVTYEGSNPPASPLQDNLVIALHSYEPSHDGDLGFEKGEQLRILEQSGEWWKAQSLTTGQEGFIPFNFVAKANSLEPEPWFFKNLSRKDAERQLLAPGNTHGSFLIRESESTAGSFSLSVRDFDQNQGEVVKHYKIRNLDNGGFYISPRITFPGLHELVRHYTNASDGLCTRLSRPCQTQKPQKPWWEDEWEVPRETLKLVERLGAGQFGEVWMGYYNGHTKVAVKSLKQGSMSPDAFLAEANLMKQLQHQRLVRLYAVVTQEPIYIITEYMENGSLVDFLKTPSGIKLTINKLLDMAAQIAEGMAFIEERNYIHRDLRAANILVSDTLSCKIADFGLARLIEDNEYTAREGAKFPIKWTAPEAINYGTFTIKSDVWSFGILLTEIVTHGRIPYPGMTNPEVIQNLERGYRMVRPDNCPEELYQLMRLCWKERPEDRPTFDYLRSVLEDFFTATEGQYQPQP
# Method: as §1, §2
# MAPKAPK2 = molecular target: T8, MAPKAPK2 (Homo sapiens, UniProt P49137); assay: Kinase-Glo Luminescent Kinase Assay; type: biochemical
# T8 construct: purchased Promega
# T8 sequence (P49137 whole entry): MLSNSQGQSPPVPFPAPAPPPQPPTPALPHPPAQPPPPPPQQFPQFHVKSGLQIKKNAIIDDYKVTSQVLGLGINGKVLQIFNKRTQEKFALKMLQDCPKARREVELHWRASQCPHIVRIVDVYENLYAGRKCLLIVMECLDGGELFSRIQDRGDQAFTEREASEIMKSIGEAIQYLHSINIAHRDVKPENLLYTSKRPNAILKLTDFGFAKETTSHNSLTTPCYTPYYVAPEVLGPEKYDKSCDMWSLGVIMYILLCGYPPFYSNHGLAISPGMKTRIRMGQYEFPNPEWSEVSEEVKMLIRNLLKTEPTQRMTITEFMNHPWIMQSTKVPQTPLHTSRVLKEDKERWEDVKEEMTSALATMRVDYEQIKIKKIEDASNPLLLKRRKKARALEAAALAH
# Method: as §1, §2
# MINK1 = molecular target: T9, MINK1 (Homo sapiens, UniProt Q8N4C8); assay: Kinase-Glo Luminescent Kinase Assay; type: biochemical
# T9 construct: purchased Promega
# T9 sequence (Q8N4C8 whole entry): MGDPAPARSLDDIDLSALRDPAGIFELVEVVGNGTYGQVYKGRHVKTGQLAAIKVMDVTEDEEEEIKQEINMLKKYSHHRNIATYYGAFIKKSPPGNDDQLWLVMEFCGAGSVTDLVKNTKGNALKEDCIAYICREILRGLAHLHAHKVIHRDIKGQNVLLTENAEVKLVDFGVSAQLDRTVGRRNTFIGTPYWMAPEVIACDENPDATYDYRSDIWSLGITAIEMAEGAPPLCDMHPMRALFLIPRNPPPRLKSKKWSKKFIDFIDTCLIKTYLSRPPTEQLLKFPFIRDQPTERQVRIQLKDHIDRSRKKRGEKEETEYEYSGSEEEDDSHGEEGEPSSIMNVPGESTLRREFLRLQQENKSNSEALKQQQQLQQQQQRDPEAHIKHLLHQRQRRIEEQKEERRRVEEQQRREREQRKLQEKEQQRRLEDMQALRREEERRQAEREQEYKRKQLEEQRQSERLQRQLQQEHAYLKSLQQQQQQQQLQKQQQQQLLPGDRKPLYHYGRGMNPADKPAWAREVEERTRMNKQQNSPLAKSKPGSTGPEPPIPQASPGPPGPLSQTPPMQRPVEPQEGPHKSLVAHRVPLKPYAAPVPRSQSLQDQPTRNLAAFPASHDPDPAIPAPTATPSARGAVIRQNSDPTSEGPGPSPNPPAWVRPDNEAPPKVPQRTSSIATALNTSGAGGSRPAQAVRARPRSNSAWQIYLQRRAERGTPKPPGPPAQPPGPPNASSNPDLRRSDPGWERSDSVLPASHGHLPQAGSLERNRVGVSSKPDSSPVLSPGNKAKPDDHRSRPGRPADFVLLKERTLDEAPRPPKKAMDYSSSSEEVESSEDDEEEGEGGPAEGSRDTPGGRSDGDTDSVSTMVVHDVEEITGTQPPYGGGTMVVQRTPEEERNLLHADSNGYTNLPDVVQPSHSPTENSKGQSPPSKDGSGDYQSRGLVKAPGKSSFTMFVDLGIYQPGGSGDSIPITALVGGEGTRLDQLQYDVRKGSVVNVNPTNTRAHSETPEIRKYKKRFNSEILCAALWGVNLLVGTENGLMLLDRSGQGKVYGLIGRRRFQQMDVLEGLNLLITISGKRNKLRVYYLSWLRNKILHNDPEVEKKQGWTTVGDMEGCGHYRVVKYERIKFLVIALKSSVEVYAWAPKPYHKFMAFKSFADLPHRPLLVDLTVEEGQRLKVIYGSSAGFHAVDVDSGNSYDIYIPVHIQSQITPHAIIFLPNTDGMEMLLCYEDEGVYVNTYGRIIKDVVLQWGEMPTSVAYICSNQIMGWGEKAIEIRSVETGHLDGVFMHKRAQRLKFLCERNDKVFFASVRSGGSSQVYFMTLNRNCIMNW
# Method: as §1, §2
# PAK1/CDC42 = molecular target: T10, PAK1/CDC42 (Homo sapiens, UniProt Q13153); assay: Kinase-Glo Luminescent Kinase Assay; type: biochemical
# T10 construct: purchased Promega
# Method: as §1, §2
# ROCK1 = molecular target: T11, ROCK1 (Homo sapiens, UniProt Q13464); assay: Kinase-Glo Luminescent Kinase Assay; type: biochemical
# T11 construct: purchased Promega
# Method: as §1, §2
# SYK = molecular target: T12, SYK (Homo sapiens, UniProt P43405); assay: Kinase-Glo Luminescent Kinase Assay; type: biochemical
# T12 construct: purchased Promega
# Method: as §1, §2
# [2] = 10 mg/kg i.p. once daily, five times per week, eight weeks
structure (smiles),measurement,setting,value
CC(=NNc1nc2cc(F)c(F)cc2n1C)c1ccc(F)cn1 [SI-12],IC50,BT-474 cells,< 100 nM
same,body weight loss,[1]; [2],minimal body weight loss
same,pancreatic tumor growth (luciferase imaging),[1]; [2],significantly delayed pancreatic tumor growth
same,average tumor weight relative to vehicle treated counterparts,"[1]; end of experiment, after eight weeks of treatment, 10 mg/kg i.p.",~30%
same,Ki-67 positive cells in tumor tissues (IHC),"[1]; versus control group, anti-Ki-67 antibody",dramatically fewer Ki-67 positive cells
same,SRC-3 levels in tumor tissues (IHC),"[1]; versus vehicle treated control group, anti-SRC-3 antibody",significantly lower than the vehicle treated control group
same,CAMK4 kinase inhibition,CAMK4; 5 nM,− (less than 20% inhibition)
same,CAMK4 kinase inhibition,CAMK4; 50 nM,− (less than 20% inhibition)
same,CAMK4 kinase inhibition,CAMK4; 1000 nM,− (less than 20% inhibition)
same,CK1a 1 kinase inhibition,CK1a 1; 5 nM,− (less than 20% inhibition)
same,CK1a 1 kinase inhibition,CK1a 1; 50 nM,− (less than 20% inhibition)
same,CK1a 1 kinase inhibition,CK1a 1; 1000 nM,− (less than 20% inhibition)
same,CK1y1 kinase inhibition,CK1y1; 5 nM,− (less than 20% inhibition)
same,CK1y1 kinase inhibition,CK1y1; 50 nM,− (less than 20% inhibition)
same,CK1y1 kinase inhibition,CK1y1; 1000 nM,− (less than 20% inhibition)
same,CK2a 1 kinase inhibition,CK2a 1; 5 nM,− (less than 20% inhibition)
same,CK2a 1 kinase inhibition,CK2a 1; 50 nM,− (less than 20% inhibition)
same,CK2a 1 kinase inhibition,CK2a 1; 1000 nM,− (less than 20% inhibition)
same,DAPK1 kinase inhibition,DAPK1; 5 nM,− (less than 20% inhibition)
same,DAPK1 kinase inhibition,DAPK1; 50 nM,− (less than 20% inhibition)
same,DAPK1 kinase inhibition,DAPK1; 1000 nM,− (less than 20% inhibition)
same,IRAK4 kinase inhibition,IRAK4; 5 nM,− (less than 20% inhibition)
same,IRAK4 kinase inhibition,IRAK4; 50 nM,− (less than 20% inhibition)
same,IRAK4 kinase inhibition,IRAK4; 1000 nM,− (less than 20% inhibition)
same,LCK kinase inhibition,LCK; 5 nM,− (less than 20% inhibition)
same,LCK kinase inhibition,LCK; 50 nM,− (less than 20% inhibition)
same,LCK kinase inhibition,LCK; 1000 nM,− (less than 20% inhibition)
same,MAPKAPK2 kinase inhibition,MAPKAPK2; 5 nM,− (less than 20% inhibition)
same,MAPKAPK2 kinase inhibition,MAPKAPK2; 50 nM,− (less than 20% inhibition)
same,MAPKAPK2 kinase inhibition,MAPKAPK2; 1000 nM,− (less than 20% inhibition)
same,MINK1 kinase inhibition,MINK1; 5 nM,− (less than 20% inhibition)
same,MINK1 kinase inhibition,MINK1; 50 nM,− (less than 20% inhibition)
same,MINK1 kinase inhibition,MINK1; 1000 nM,− (less than 20% inhibition)
same,PAK1/CDC42 kinase inhibition,PAK1/CDC42; 5 nM,− (less than 20% inhibition)
same,PAK1/CDC42 kinase inhibition,PAK1/CDC42; 50 nM,− (less than 20% inhibition)
same,PAK1/CDC42 kinase inhibition,PAK1/CDC42; 1000 nM,− (less than 20% inhibition)
same,ROCK1 kinase inhibition,ROCK1; 5 nM,+ (from 20% to 40% inhibition)
same,ROCK1 kinase inhibition,ROCK1; 50 nM,+ (from 20% to 40% inhibition)
same,ROCK1 kinase inhibition,ROCK1; 1000 nM,+ (from 20% to 40% inhibition)
same,SYK kinase inhibition,SYK; 5 nM,− (less than 20% inhibition)
same,SYK kinase inhibition,SYK; 50 nM,− (less than 20% inhibition)
same,SYK kinase inhibition,SYK; 1000 nM,− (less than 20% inhibition)
